Reference: the NIST ThermoML archive (doi:10.1016/j.jct.2004.12.014)

Experiments:
[1] = xn = mol fraction of the nth substance listed; conditions: 318.15 K, 101 kPa, Liquid
[2] = excess molar enthalpy (molar enthalpy of mixing); xn = mol fraction of the nth substance listed; conditions: 318.15 K, 101 kPa, Liquid

CCCCOC(=O)CC [butyl propanoate] + CCCCCCCCCCCCC
Conditions	excess molar enthalpy [kJ/mol]	excess molar volume [m3/mol]
[1], x1 = 0.0406	–	1.23e-07
[1], x1 = 0.0973	–	2.84e-07
[1], x1 = 0.1791	–	4.62e-07
[1], x1 = 0.2615	–	6.48e-07
[1], x1 = 0.3352	–	7.42e-07
[1], x1 = 0.4049	–	8.02e-07
[1], x1 = 0.4702	–	8.32e-07
[1], x1 = 0.5333	–	8.34e-07
[1], x1 = 0.5918	–	8.19e-07
[1], x1 = 0.6472	–	7.81e-07
[1], x1 = 0.6989	–	7.36e-07
[1], x1 = 0.7487	–	6.45e-07
[1], x1 = 0.7961	–	5.77e-07
[1], x1 = 0.84	–	4.79e-07
[1], x1 = 0.8821	–	3.67e-07
[1], x1 = 0.9219	–	2.68e-07
[1], x1 = 0.9617	–	1.52e-07
[2], x1 = 0.0777	0.316	–
[2], x1 = 0.152	0.553	–
[2], x1 = 0.2315	0.774	–
[2], x1 = 0.3105	0.95	–
[2], x1 = 0.3857	1.06	–
[2], x1 = 0.4542	1.11	–
[2], x1 = 0.5154	1.13	–
[2], x1 = 0.5619	1.12	–
[2], x1 = 0.6157	1.09	–
[2], x1 = 0.6596	1.02	–
[2], x1 = 0.7081	0.942	–
[2], x1 = 0.7591	0.821	–
[2], x1 = 0.8107	0.69	–
[2], x1 = 0.857	0.552	–
[2], x1 = 0.9081	0.378	–
[2], x1 = 0.9555	0.195	–

CCOC(=O)CC [ethyl propanoate] + CCCCCCC
Conditions	excess molar enthalpy [kJ/mol]	excess molar volume [m3/mol]
[1], x1 = 0.0401	–	1.58e-07
[1], x1 = 0.0797	–	3.09e-07
[1], x1 = 0.1474	–	5.09e-07
[1], x1 = 0.2182	–	6.76e-07
[1], x1 = 0.2873	–	7.86e-07
[1], x1 = 0.3497	–	8.53e-07
[1], x1 = 0.4098	–	8.95e-07
[1], x1 = 0.5276	–	8.77e-07
[1], x1 = 0.5897	–	8.41e-07
[1], x1 = 0.6453	–	7.71e-07
[1], x1 = 0.701	–	7.23e-07
[1], x1 = 0.7534	–	6.41e-07
[1], x1 = 0.808	–	5.27e-07
[1], x1 = 0.8554	–	4.12e-07
[1], x1 = 0.9045	–	2.9e-07
[1], x1 = 0.9534	–	1.5e-07
[2], x1 = 0.0724	0.321	–
[2], x1 = 0.1469	0.594	–
[2], x1 = 0.2238	0.819	–
[2], x1 = 0.294	0.981	–
[2], x1 = 0.3653	1.09	–
[2], x1 = 0.4286	1.14	–
[2], x1 = 0.4855	1.16	–
[2], x1 = 0.5345	1.15	–
[2], x1 = 0.5733	1.12	–
[2], x1 = 0.5847	1.1	–
[2], x1 = 0.6302	1.06	–
[2], x1 = 0.682	0.991	–
[2], x1 = 0.7393	0.892	–
[2], x1 = 0.7978	0.759	–
[2], x1 = 0.8563	0.596	–
[2], x1 = 0.9088	0.404	–
[2], x1 = 0.963	0.191	–

CCOC(=O)CC [ethyl propanoate] + CCCCCCCCC
Conditions	excess molar enthalpy, [2] [kJ/mol]	excess molar volume, [1] [m3/mol]
x1 = 0.0376	–	1.65e-07
x1 = 0.0817	0.385	–
x1 = 0.0926	–	3.58e-07
x1 = 0.1719	0.705	–
x1 = 0.1744	–	6.18e-07
x1 = 0.2554	–	8.2e-07
x1 = 0.2598	0.967	–
x1 = 0.3255	–	9.43e-07
x1 = 0.3403	1.14	–
x1 = 0.3925	–	1.022e-06
x1 = 0.4145	1.24	–
x1 = 0.457	–	1.075e-06
x1 = 0.4797	1.29	–
x1 = 0.4909	1.3	–
x1 = 0.523	–	1.077e-06
x1 = 0.5379	1.3	–
x1 = 0.5764	1.27	–
x1 = 0.5826	–	1.066e-06
x1 = 0.5876	1.27	–
x1 = 0.6277	1.22	–
x1 = 0.6348	–	1.027e-06
x1 = 0.6791	1.13	–
x1 = 0.6882	–	9.47e-07
x1 = 0.732	1.02	–
x1 = 0.7398	–	8.52e-07
x1 = 0.7883	0.866	7.57e-07
x1 = 0.8344	–	6.26e-07
x1 = 0.8451	0.68	–
x1 = 0.878	–	5.01e-07
x1 = 0.9016	0.464	–
x1 = 0.9181	–	3.41e-07
x1 = 0.9517	0.247	–
x1 = 0.9584	–	1.81e-07

CCCCCCCCCCCCCCCCC [heptadecane] + CCC(=O)OC
Conditions	excess molar enthalpy [kJ/mol]	excess molar volume [m3/mol]
[1], x2 = 0.0755	–	3.32e-07
[1], x2 = 0.1644	–	6.94e-07
[1], x2 = 0.3049	–	1.182e-06
[1], x2 = 0.409	–	1.452e-06
[1], x2 = 0.5004	–	1.581e-06
[1], x2 = 0.5739	–	1.623e-06
[1], x2 = 0.6379	–	1.592e-06
[1], x2 = 0.6942	–	1.504e-06
[1], x2 = 0.7425	–	1.39e-06
[1], x2 = 0.7831	–	1.271e-06
[1], x2 = 0.8219	–	1.128e-06
[1], x2 = 0.8553	–	9.81e-07
[1], x2 = 0.8846	–	8.56e-07
[1], x2 = 0.9369	–	5.66e-07
[1], x2 = 0.9596	–	4.18e-07
[1], x2 = 0.9803	–	2.34e-07
[2], x2 = 0.0946	0.552	–
[2], x2 = 0.2186	1.16	–
[2], x2 = 0.3238	1.62	–
[2], x2 = 0.4115	1.91	–
[2], x2 = 0.4797	2.06	–
[2], x2 = 0.5289	2.12	–
[2], x2 = 0.5687	2.15	–
[2], x2 = 0.5996	2.15	–
[2], x2 = 0.6291	2.13	–
[2], x2 = 0.6637	2.09	–
[2], x2 = 0.6974	2.01	–
[2], x2 = 0.7327	1.89	–
[2], x2 = 0.7677	1.74	–
[2], x2 = 0.8042	1.55	–
[2], x2 = 0.8381	1.37	–
[2], x2 = 0.8741	1.13	–
[2], x2 = 0.909	0.896	–
[2], x2 = 0.9409	0.619	–
[2], x2 = 0.9721	0.315	–
